Data: US7160874B2, “Phenylalanine derivatives” (Ajinomoto Co., Inc., priority 1999, dated 2007)

How the values were obtained:
integrin α4β1 = biological target: T1, integrin α4β1 (Homo sapiens, UniProt P05556+P13612); experiment: VCAM antagonist activity (VCAM-1/α4β1 binding assay); assay type: cell-based; conditions: Jurkat cells binding to VCAM-1; read-out: VCAM antagonistic activity (IC50) α4β1
T1 construct: cell strain Jurkat (ATCC TIB-152) of human T cells, known to express integrin α4β1; host or cells: Jurkat (human T cell line)
T1 sequence (P05556 21-798, one chain of several): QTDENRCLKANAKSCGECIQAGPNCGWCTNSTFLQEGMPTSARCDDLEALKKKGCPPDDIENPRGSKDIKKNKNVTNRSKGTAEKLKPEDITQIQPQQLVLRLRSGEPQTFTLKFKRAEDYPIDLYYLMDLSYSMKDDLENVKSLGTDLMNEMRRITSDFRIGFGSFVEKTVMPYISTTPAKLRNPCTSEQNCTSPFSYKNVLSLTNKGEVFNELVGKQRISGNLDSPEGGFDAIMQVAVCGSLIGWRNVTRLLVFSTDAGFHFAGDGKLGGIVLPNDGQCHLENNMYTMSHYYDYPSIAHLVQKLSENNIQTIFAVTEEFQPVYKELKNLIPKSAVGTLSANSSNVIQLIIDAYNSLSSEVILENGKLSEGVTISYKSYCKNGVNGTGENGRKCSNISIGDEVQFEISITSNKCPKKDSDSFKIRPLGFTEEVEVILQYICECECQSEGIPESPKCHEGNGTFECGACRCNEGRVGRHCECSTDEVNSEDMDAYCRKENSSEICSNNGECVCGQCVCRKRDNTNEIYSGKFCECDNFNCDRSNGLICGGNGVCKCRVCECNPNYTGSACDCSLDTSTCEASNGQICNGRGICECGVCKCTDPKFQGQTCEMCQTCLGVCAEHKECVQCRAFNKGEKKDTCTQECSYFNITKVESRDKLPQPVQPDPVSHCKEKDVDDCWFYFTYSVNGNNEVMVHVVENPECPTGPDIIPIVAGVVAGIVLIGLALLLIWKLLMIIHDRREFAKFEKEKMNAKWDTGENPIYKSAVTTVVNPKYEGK
Method: (Test Example) VCAM Antagonist Activity (VCAM-1/α4β1 Binding Assay):
The capacity of a test substance antagonistic to the binding of cell strain Jurkat (ATCC TIB-152) of human T cells, known to express integrin α4β1, to VCAM-1 was determined.
(§1) 100 μl/well of a solution (500 ng/ml) of recombinant human VCAM-1 (R & D systems) solution diluted with buffer A (0.1 M NaHCO3, pH 9.6) was added to a micro titer plate having 96 wells (Nunc Maxisorp). After the incubation at 4° C. overnight, unbound VCAM-1 was removed by washing once with PBS. After completion of the washing, a buffer (buffer B) obtained by diluting Block Ace® (Dainippon Pharmaceutical Co., Ltd.) with PBS to 1/4 concentration was added in an amount of 150 μl/well. After the incubation at room temperature for 1 hour, buffer B was removed and the plate was washed with PBS once.
Jurkat cells were washed with Dulbecco modified Eagle medium (SIGMA, hereinafter referred to as “DMEM”) twice and then incubated in DMEM containing 10 μg/ml of Calcein-AM (Wako Pure Chemical Industries, Ltd.) at 37° C. in dark place for 30 minutes to label with fluorescence. The cells were again suspended in a binding buffer (20 mM HEPES, DMEM containing 0.1% BSA).
(§2) 50 μl of a test substance of various concentrations obtained by the dilution with the binding buffer was added to the plate. Immediately thereafter, 50 μl (final volume: 100 μl/well) of the fluorescent Jurkat cells (4×10^6 cells/ml) were added thereto, and they were incubated at room temperature for 30 minutes. After the shaking on a plate shaker (IKA MTS-4) at 800 rpm for 30 seconds, the solution was immediately removed to remove the unbound cells. The fluorescence quantity of the bound cells remaining in the wells was determined with a fluorescent plate reader (Wallac 1420 ARVO multi-label counter) (filter excitation wave length: 485 nm, emission wave length: 535 nm). The fluorescent strength thus obtained is proportional to the number of Jurkat cells bound to VCAM-1 and remaining on the plate. The binding rate of each test material in various concentrations was determined while the fluorescent strength of the test material-free well was determined to be 100%. The concentration IC50 for the 50% binding inhibition was calculated.
(§3) The activities were classified into group A wherein IC50 was 0.02 μmol/l or below, group B wherein IC50 was higher than 0.02 μmol/l and not above 0.1 μmol/l, group C wherein IC50 was higher than 0.1 μmol/l and not above 2 μmol/l, and group D wherein IC50 was higher than 2 μmol/l and not above 10 μmol/l.

integrin α4β7 = biological target: T2, integrin α4β7 (Homo sapiens, UniProt P13612+P26010); experiment: VCAM antagonistic activity (VCAM-1/α4β7 binding assay); assay type: cell-based; conditions: RPMI-8866 cells binding to VCAM-1; read-out: VCAM antagonistic activity (IC50) α4β7
T2 construct: lymphoma cell strain RPMI-8866 of human B cells, known to express integrin α4β7; endogenous in cells; host or cells: RPMI-8866 (human B lymphoma cell line)
T2 sequence (P13612 34-1032): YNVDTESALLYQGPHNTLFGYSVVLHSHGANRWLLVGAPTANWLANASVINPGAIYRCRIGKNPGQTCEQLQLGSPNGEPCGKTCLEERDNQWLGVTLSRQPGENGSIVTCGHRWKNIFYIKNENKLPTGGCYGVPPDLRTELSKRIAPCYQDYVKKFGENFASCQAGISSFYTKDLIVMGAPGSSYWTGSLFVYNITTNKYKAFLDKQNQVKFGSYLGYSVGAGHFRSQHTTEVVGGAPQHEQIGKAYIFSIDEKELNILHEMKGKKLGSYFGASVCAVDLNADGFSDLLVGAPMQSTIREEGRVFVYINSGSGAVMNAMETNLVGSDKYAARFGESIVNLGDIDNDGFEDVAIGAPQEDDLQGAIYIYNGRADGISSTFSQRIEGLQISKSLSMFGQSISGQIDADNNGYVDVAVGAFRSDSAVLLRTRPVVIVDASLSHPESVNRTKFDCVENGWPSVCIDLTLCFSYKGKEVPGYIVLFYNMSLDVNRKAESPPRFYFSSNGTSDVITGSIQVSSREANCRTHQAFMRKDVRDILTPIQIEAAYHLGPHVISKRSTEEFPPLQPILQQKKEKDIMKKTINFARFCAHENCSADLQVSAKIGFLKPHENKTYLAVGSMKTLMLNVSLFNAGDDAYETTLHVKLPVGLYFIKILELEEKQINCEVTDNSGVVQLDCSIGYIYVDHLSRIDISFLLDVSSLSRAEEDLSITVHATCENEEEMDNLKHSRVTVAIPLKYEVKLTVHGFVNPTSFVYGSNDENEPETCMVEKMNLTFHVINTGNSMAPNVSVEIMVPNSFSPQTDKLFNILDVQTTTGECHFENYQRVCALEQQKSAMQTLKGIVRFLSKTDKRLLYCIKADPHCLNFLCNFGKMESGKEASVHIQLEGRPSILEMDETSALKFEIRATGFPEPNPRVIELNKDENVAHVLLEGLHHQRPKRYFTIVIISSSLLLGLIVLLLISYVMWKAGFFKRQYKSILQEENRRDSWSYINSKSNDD
T2 sequence (P26010 20-798): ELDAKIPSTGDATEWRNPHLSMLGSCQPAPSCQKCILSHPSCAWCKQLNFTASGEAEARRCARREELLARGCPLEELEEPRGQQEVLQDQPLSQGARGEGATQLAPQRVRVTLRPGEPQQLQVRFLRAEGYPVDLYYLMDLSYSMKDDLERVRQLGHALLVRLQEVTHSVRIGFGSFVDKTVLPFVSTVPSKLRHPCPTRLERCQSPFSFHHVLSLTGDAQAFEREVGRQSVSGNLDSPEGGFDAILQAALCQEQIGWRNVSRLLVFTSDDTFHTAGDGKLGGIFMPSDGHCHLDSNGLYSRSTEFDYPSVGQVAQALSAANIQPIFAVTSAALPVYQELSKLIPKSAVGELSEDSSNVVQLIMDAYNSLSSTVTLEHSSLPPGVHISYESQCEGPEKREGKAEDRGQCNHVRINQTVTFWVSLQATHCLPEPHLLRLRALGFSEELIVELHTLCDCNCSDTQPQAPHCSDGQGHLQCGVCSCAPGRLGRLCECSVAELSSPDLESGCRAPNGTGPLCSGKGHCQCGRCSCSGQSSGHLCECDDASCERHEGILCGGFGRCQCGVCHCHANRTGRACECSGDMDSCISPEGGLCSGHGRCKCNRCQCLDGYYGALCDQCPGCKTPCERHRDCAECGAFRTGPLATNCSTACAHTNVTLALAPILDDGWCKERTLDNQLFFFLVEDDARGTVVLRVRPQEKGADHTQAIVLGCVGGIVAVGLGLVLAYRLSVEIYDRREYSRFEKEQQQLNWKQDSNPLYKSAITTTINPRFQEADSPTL
Method: (Test Example) VCAM Antagonistic Activity (VCAM-1/α4β7 Binding Assay):
The capacity of a test substance antagonistic to the binding of lymphoma cell strain RPMI-8866 of human B cells, known to express integrin α4β7, to VCAM-1 was determined.
as §1
RPMI-8866 cells were incubated in Dulbecco modified Eagle medium containing 10 μg/ml of Calcein-AM (Wako Pure Chemical Industries, Ltd.) (SIGMA, hereinafter referred to as “DMEM”) at 37° C. for 30 minutes to label with fluorescence. The cells were again suspended in a binding buffer (20 mM HEPES, DMEM containing 0.1% BSA) containing 4 mM of MnCl2.
as §2, with “RPMI-8866” for “Jurkat”
as §3

IC50 (integrin α4β1)	IC50 (integrin α4β7)	Compound
100 to 2000 nM	100 to 2000 nM	CCC(CC)(C(=O)N[C@@H](Cc1ccc(OCc2c(Cl)cccc2Cl)cc1)C(=O)O)C(=O)N1CCN(c2ccc(O)cc2)CC1 [Example 7]
100 to 2000 nM	20 to 100 nM	CN(C)C(=O)C1(C(=O)N[C@@H](Cc2ccc(NC(=O)c3cc(F)c(F)cc3Cl)cc2)C(=O)O)CC1 [Example 86]
100 to 2000 nM	< 20 nM	CN(C)C(=O)C1(C(=O)N[C@@H](Cc2ccc(OCc3c(Cl)cccc3Cl)cc2)C(=O)O)CCOCC1 [Example 468]
100 to 2000 nM	20 to 100 nM	CC(C)(C(=O)N[C@@H](Cc1ccc(OCc2c(Cl)cccc2Cl)cc1)C(=O)O)C(=O)N1CCCC1 [Example 33]
20 to 100 nM	< 20 nM	CCC(CC)(C(=O)N[C@@H](Cc1ccc(OCc2c(Cl)cccc2Cl)cc1)C(=O)O)C(=O)N1CCC[C@H]1C(=O)NC [Example 72]
100 to 2000 nM	20 to 100 nM	CCC(CC)(C(=O)N[C@@H](Cc1ccc(OCc2c(Cl)cccc2Cl)cc1)C(=O)O)C(=O)N1CCCN(C=O)CC1 [Example 61]
100 to 2000 nM	20 to 100 nM	CCC(CC)(C(=O)N[C@@H](Cc1ccc(OCc2c(Cl)cccc2Cl)cc1)C(=O)O)C(=O)N1CC[C@H](N)C1 [Example 66]
20 to 100 nM	< 20 nM	CCC(CC)(C(=O)N[C@@H](Cc1ccc(OCc2c(Cl)cccc2Cl)cc1)C(=O)O)C(=O)N1CC[C@@H](NC(C)=O)C1 [Example 54]
20 to 100 nM	< 20 nM	CCC(CC)(C(=O)N[C@@H](Cc1ccc(OCc2c(Cl)cccc2Cl)cc1)C(=O)O)C(=O)N1CC[C@@H](O)C1 [Example 35]
20 to 100 nM	< 20 nM	CCC(CC)(C(=O)N[C@@H](Cc1ccc(NC(=O)c2c(F)cccc2C(F)(F)F)cc1)C(=O)O)C(=O)N1CCCC1 [Example 92, N-(2-pyrrolidine-1-ylcarbonyl-2-ethyl-butanoyl)-4-({[2-fluoro-6-(trifluoromethyl)phenyl]carbonyl}amino)-L-phenylalanine]
2000 to 10000 nM	100 to 2000 nM	CC1(C)CC2CC(C)(CN2C(=O)C2(C(=O)NC(Cc3ccc(OCc4c(Cl)cccc4Cl)cc3)C(=O)O)CCOCC2)C1 (stereo not shown) [Example 472]
100 to 2000 nM	100 to 2000 nM	CN(C)C(=O)C1(C(=O)N[C@@H](Cc2ccc(OCc3c(Cl)cccc3Cl)cc2)C(=O)O)CCCC1 [Example 8]
100 to 2000 nM	< 20 nM	CCC(CC)(C(=O)NC(Cc1ccc(OCc2c(Cl)cccc2Cl)cc1)C(=O)O)C(=O)N1CCCC1C(=O)OC (stereo not shown) [Example 56]
100 to 2000 nM	< 20 nM	CCC(CCOC)(C(=O)NC(Cc1ccc(OCc2c(Cl)cccc2Cl)cc1)C(=O)O)C(=O)N1CCCC1 (mixture of isomers) [Example 43]
2000 to 10000 nM	100 to 2000 nM	CCC(CC)(C(=O)NCCc1ccc(O)cc1)C(=O)N[C@@H](Cc1ccc(OCc2c(Cl)cccc2Cl)cc1)C(=O)O [Example 6]
100 to 2000 nM	20 to 100 nM	CN(C)C(=O)C1(C(=O)N[C@@H](Cc2ccc(NC(=O)c3cc(Br)ccc3Cl)cc2)C(=O)O)CC1 [Example 87]
100 to 2000 nM	20 to 100 nM	CCC(CC)(C(=O)NC(Cc1ccc(OCc2c(Cl)cccc2Cl)cc1)C(=O)O)C(=O)N1CCCCC1C(N)=O (mixture of isomers) [Example 51]
100 to 2000 nM	20 to 100 nM	CN(C)C(=O)C(C)(C)C(=O)N[C@@H](Cc1ccc(OCc2c(Cl)cccc2Cl)cc1)C(=O)O [Example 2, N-[2-(dimethylaminocarbonyl)-2-methyl-propanoyl]-O-(2,6-dichlorobenzyl)-L-tyrosine]
100 to 2000 nM	< 20 nM	CCC(CC)(C(=O)N[C@@H](Cc1ccc(OCc2c(Cl)cccc2Cl)cc1)C(=O)O)C(=O)N1CC[C@H](O)C1 [Example 65]
20 to 100 nM	< 20 nM	CCC(CC)(C(=O)N[C@@H](Cc1ccc(NC(=O)c2nc(NCc3ccc(OC)cc3)ncc2Cl)cc1)C(=O)O)C(=O)N1CCCC1 [Example 480, N-[2-(pyrrolidine-1-ylcarbonyl)-2-ethyl-butanoyl]-4-[({5-chloro-2-[(4-methoxybenzyl)amino]pyrimidine-4-yl}carbonyl)amino]-L-phenylalanine]
